Twelve compounds from patent publication US20240109865A1, “INDAZOLE COMPOUNDS AS KINASE INHIBITORS” (TYRA BIOSCIENCES, INC., priority 2020, published 2024) can be followed below.

Test [1] addresses FGFR3-BAIAP2L1 Ba/F3 cells (Homo sapiens, UniProt P22607). Kind of test: Ba/F3 cell viability assay (CellTiter-Glo 2.0), FGFR3-BAIAP2L1 Ba/F3. Format: cell-based. The following applies: for Ba/F3 FGFR1/FGFR3 Selectivity: FGFR3 > FGFR1 selectivity ratio in Ba/F3 FGFR fusion cell based assays; for IC50: read-out: Ba/F3 Cells FGFR3 (IC50 nM), FGFR3-BAIAP2L1 Ba/F3 cells, 48 hours, Cell Titer Glo 2.0. An excerpt: (§1) Experimental Purpose: Recombinant kinase fusions are transduced into parental Ba/F3, which becomes dependent upon this constitutive kinase activity for IL3-independent survival. Inhibition of kinase activity leads to cell death, which is monitored using CellTiter-Glo® 2.0 (Promega) which measures intracellular ATP concentration that in turn serves as a marker for viability. FGFR1-BCR Ba/F3 and FGFR3-BAIAP2L1 Ba/F3 were obtained from Advanced Cellular Dynamics (Seattle, WA)
(§2) Cell Viability Assay Procedure: Cell Titer-Glo® 2.0 Luminescent cell viability assay reagent was purchased from Promega (Madison, WI). FGFR1-BCR Ba/F3 and FGFR3-BAIAP2L1 Ba/F3 cells were cultured in RPMI1640 media supplemented with 10% fetal bovine serum. Cultures were maintained at 37° C. in a humidified atmosphere of 5% C02 and 95% air.
(§3) Cells were plated in 96-well clear bottom/white plates (Corning #3903) at 10,000 cells/well in 100 μl of media, incubated overnight. The next day, test compound DMSO stock solutions were made at 10 mM and 2 μM final concentration. Compounds were then added to cells in a 9-dose, 10-fold dilution series starting at 30 μM with an HP 300e Digital Dispenser (each dose was applied in triplicate). DMSO was backfilled to each well up to 301 nL total volume of test compound+DMSO, and a total of 301 nL DMSO was added to a control/no test compound well in triplicate. The cells in cell culture plates were incubated with the compounds at 37° C. and 5% C02 for 48 hours. Then 50 μl of Cell Titer Glo 2.0 reagent was added to each well of the cell culture plates. The contents were covered from light and mixed on an orbital shaker at room temperature for 10 min. Luminescence was recorded by a Synergy H1 Microplate Reader (Biotek, Winooski, VT). Cells were assessed as a percentage of DMSO only treated control cells. Curves were plotted and IC50 values were calculated using the GraphPad Prism 8 program based on a sigmoidal dose-response equation (4 parameter).
For orientation: In ATP-based viability assays light output follows the ATP content of the culture.

For another test, the target named is FGFR3 (Homo sapiens (Human), UniProt P22607). As to the kind of experiment: Kinase assay, binding constants (Kd), kinase-tagged T7 phage, qPCR. The method, boiled down:
(§4)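 Competition binding: kinase-tagged T7 phage lysates mixed with immobilized biotinylated ligand on streptavidin beads plus compound (11-point 3-fold dilution series, 0.9% DMSO final). Bound kinase eluted with free ligand and quantified by qPCR. Kd from Hill equation fit, slope fixed at −1.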
(In qPCR the cycle at which signal appears reflects the starting amount.)

In a further test the target is FGFR3 (V555M) (Homo sapiens (Human), UniProt P22607, V555M). Described as above. The following applies: V555M mutant. The method, boiled down:
as §4

The target of the next test is FGFR4 (Homo sapiens (Human), UniProt P22455). Described as above. The method, boiled down:
as §4

The target in another test is FGFR1 (Homo sapiens (Human), UniProt P11362). The description is as above. Put shortly:
as §4

A further test addresses FGFR2 (Homo sapiens (Human), UniProt P21802). Described as above. The method, boiled down:
as §4

For another test, the target named is FGFR1-BCR Ba/F3 cells (Homo sapiens, UniProt P11362). As to the kind of experiment: Ba/F3 cell viability assay (CellTiter-Glo 2.0), FGFR1-BCR Ba/F3. It counts as cell-based. The following applies: read-out: Ba/F3 Cells FGFR1 (IC50 nM), 48 hours, Cell Titer Glo 2.0.
Chain of FGFR1-BCR Ba/F3 cells (P11362 22-822 limits assumed, change not shown): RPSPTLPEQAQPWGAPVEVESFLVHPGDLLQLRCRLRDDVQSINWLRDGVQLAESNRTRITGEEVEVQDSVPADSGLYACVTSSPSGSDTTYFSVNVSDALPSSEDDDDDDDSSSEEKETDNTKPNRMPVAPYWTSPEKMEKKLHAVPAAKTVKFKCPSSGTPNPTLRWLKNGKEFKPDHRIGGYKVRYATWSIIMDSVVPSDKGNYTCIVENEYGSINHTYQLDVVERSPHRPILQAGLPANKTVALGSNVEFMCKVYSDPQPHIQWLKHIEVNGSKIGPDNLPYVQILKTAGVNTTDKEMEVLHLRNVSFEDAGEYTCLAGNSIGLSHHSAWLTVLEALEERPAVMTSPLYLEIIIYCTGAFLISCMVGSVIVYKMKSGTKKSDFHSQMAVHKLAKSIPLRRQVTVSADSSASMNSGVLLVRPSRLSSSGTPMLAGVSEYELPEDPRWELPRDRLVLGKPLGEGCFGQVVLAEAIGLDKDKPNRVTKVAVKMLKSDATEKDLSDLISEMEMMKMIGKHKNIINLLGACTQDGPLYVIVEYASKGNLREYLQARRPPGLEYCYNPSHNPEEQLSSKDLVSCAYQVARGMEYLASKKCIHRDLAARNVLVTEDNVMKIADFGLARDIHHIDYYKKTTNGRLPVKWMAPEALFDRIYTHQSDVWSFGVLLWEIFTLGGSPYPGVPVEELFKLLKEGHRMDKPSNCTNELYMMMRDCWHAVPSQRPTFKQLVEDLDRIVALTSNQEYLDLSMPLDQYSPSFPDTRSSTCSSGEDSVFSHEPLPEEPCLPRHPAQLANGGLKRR
From the text: as §1, §2, §3

Chain of FGFR2 (P21802 22-821): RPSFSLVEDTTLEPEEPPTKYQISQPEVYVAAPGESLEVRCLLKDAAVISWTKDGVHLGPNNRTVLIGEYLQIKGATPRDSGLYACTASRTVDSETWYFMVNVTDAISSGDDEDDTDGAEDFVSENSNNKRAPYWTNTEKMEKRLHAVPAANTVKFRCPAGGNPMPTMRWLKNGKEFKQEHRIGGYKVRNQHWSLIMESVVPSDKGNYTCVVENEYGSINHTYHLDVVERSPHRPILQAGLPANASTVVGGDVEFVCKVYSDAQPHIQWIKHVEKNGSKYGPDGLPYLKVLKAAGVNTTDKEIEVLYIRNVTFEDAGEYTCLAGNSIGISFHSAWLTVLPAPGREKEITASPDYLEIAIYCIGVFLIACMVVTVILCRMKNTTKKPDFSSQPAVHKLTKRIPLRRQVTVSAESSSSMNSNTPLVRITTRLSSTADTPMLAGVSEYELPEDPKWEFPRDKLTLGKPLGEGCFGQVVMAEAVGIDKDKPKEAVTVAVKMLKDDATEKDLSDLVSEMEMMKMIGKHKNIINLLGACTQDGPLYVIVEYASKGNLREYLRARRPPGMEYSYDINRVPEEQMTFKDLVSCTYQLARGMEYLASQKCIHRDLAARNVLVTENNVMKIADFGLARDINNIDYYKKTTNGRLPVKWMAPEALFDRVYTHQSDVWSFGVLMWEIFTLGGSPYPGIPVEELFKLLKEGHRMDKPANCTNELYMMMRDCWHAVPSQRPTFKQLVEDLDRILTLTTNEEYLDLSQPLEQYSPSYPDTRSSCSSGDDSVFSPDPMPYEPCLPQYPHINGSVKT
Chain of FGFR3 (V555M) (P22607 23-806 V555M): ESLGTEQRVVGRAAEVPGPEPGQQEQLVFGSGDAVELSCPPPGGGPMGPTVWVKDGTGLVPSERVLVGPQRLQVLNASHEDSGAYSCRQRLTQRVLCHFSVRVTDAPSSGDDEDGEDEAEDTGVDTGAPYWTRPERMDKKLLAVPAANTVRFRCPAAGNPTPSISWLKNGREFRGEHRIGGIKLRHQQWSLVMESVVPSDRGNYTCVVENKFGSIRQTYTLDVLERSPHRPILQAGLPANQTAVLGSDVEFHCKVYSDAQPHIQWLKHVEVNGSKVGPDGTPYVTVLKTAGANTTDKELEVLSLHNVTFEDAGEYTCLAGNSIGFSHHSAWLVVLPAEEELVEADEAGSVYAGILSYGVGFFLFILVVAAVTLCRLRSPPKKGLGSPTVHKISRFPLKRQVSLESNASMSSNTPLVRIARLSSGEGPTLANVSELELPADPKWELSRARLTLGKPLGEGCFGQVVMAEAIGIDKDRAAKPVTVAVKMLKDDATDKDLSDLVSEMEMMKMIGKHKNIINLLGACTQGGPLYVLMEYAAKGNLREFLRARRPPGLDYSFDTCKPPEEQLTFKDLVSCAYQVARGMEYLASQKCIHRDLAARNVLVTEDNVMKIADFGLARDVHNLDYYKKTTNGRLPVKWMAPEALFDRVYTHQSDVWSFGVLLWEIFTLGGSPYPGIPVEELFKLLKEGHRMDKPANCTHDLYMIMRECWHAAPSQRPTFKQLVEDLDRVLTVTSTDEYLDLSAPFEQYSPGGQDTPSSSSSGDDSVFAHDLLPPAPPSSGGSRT
Chain of FGFR4 (P22455 22-802): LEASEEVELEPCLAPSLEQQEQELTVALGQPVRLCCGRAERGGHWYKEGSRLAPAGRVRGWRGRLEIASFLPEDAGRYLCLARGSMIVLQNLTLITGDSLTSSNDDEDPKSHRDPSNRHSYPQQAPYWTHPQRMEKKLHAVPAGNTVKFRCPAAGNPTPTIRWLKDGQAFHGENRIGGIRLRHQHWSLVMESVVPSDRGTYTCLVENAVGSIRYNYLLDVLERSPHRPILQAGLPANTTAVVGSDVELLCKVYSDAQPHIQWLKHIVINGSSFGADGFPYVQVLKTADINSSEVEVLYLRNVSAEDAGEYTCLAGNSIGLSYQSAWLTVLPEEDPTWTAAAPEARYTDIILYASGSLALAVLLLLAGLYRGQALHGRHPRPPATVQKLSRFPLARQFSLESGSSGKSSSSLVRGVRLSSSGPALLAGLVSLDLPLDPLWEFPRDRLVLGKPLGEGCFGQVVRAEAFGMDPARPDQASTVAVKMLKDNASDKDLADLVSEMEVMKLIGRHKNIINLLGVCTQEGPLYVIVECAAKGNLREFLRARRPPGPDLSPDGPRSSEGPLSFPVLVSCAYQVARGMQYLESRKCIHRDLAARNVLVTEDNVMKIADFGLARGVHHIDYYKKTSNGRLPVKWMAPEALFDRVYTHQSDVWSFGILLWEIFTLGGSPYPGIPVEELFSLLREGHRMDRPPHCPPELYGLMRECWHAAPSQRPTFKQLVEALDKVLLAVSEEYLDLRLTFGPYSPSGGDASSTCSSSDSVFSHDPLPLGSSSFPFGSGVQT
Chain of FGFR3 (P22607 23-806): as the sequence (P22607 23-806 V555M) above, with M533V counted along it
Chain of FGFR3-BAIAP2L1 Ba/F3 cells (P22607 23-806 limits assumed, change not shown): as the sequence (P22607 23-806 V555M) above, with M533V counted along it
Chain of FGFR1 (P11362 22-822): as the sequence (P11362 22-822 limits assumed, change not shown) above

A word on the Kd: it is the free concentration of one partner at which half of the binding sites on the other are occupied at equilibrium, for simple one-to-one binding. As for `C[C@@H](Oc1ccc2[nH]nc(-c3ccc(N4CCN(S(C)(=O)=O)CC4=O)nc3)c2c1)c1c(Cl)cncc1Cl` [Example 39, 1-[5-[5-[(1R)-1-(3,5-dichloro-4-pyridyl)ethoxy]-1H-indazol-3-yl]-2-pyridyl]-4-methylsulfonyl-piperazin-2-one], in test [1], the “Ba/F3 FGFR1/FGFR3 Selectivity” value was found to be 16. Besides, the IC50 was 1 to 20 nM in test [1] and 100 to 300 nM at FGFR1-BCR Ba/F3 cells. Also, the Kd was in the range of 1 to 20 nM at FGFR3; 1 to 20 nM on FGFR3 (V555M); 1 to 20 nM on FGFR4; 20 to 100 nM on FGFR1; 20 to 100 nM at FGFR2.
For `C[C@@H](Oc1ccc2[nH]nc(-c3ccc(N4CCC5(CCC(=O)N5C)CC4)nc3)c2c1)c1c(Cl)cncc1Cl` [Example 40, 8-[5-[5-[(1R)-1-(3,5-dichloro-4-pyridyl)ethoxy]-1H-indazol-3-yl]-2-pyridyl]-1-methyl-1,8-diazaspiro[4.5]decan-2-one], in test [1], the “Ba/F3 FGFR1/FGFR3 Selectivity” value worked out at 30. Besides, the IC50 is 1 to 20 nM in test [1] and 20 to 100 nM on FGFR1-BCR Ba/F3 cells. For the same compound, the Kd at FGFR3, on FGFR3 (V555M), at FGFR4, on FGFR1 and on FGFR2 was 1 to 20 nM throughout.
In the case of `C[C@@H](Oc1ccc2[nH]nc(-c3cnc(N4CCC5(CCC(=O)N5C)CC4)c(F)c3)c2c1)c1c(Cl)cncc1Cl` [Example 43, 8-[5-[5-[(1R)-1-(3,5-dichloro-4-pyridyl)ethoxy]-1H-indazol-3-yl]-3-fluoro-2-pyridyl]-1-methyl-1,8-diazaspiro[4.5]decan-2-one], in test [1], the “Ba/F3 FGFR1/FGFR3 Selectivity” value worked out at 10. Also, the results for the IC50 (in test [1]; at FGFR1-BCR Ba/F3 cells) were 1 to 20 nM and 20 to 100 nM, respectively. The Kd on FGFR3, at FGFR3 (V555M), at FGFR4, on FGFR1 and on FGFR2 was 1 to 20 nM throughout.
With `C[C@@H](Oc1ccc2[nH]nc(-c3cnc(N4CCC5(CC4)C(=O)NCCN5C)c(F)c3)c2c1)c1c(Cl)cncc1Cl` [Example 44, 9-[5-[5-[(1R)-1-(3,5-dichloro-4-pyridyl)ethoxy]-1H-indazol-3-yl]-3-fluoro-2-pyridyl]-1-methyl-1,4,9-triazaspiro[5.5]undecan-5-one], the IC50 in test [1] is 1 to 20 nM; at FGFR1-BCR Ba/F3 cells, 20 to 100 nM. Also, the Kd on FGFR3, at FGFR3 (V555M), at FGFR4, on FGFR1 and on FGFR2 was 1 to 20 nM throughout.
`C[C@@H](Oc1ccc2[nH]nc(-c3cnc(N4CCC5(CC4)CNC(=O)N5)nc3)c2c1)c1c(Cl)cncc1Cl` [Example 53, 8-[5-[5-[(1R)-1-(3,5-dichloro-4-pyridyl)ethoxy]-1H-indazol-3-yl]pyrimidin-2-yl]-1,3,8-triazaspiro-[4.5]decan-2-one]: the “Ba/F3 FGFR1/FGFR3 Selectivity” value in test [1] is on record as 11. For the same compound, the IC50 in test [1] lay within 20 to 100 nM; on FGFR1-BCR Ba/F3 cells, 100 to 300 nM. The dissociation constant (Kd) on FGFR3 is 1 to 20 nM; on FGFR3 (V555M) it was 1 to 20 nM; on FGFR4, 1 to 20 nM; on FGFR1 it was 20 to 100 nM; at FGFR2, 20 to 100 nM.
Consider `C[C@@H](Oc1ccc2[nH]nc(-c3cnc(N4CCC5(CCNC5=O)CC4)nc3)c2c1)c1c(Cl)cncc1Cl` [Example 55, 8-[5-[5-[(1R)-1-(3,5-dichloro-4-pyridyl)ethoxy]-1H-indazol-3-yl]pyrimidin-2-yl]-2,8-diazaspiro-[4.5]decan-1-one], for which the “Ba/F3 FGFR1/FGFR3 Selectivity” value in test [1] was 16. Moreover, the IC50 was 20 to 100 nM in test [1] and more than 300 nM on FGFR1-BCR Ba/F3 cells. For the same compound, the Kd on FGFR3 was in the range of 1 to 20 nM; at FGFR3 (V555M), 1 to 20 nM; on FGFR4, 1 to 20 nM; at FGFR1, 20 to 100 nM; on FGFR2 it was 20 to 100 nM.
Turning to `C[C@@H](Oc1ccc2[nH]nc(-c3cnc(N4CCC5(CCCN5)CC4)nc3)c2c1)c1c(Cl)cncc1Cl` [Example 56, 8-[5-[5-[(1R)-1-(3,5-dichloro-4-pyridyl)ethoxy]-1H-indazol-3-yl]pyrimidin-2-yl]-1,8-diazaspiro[4.5]decane], in test [1], the “Ba/F3 FGFR1/FGFR3 Selectivity” value is 5. In addition, the IC50 in test [1] is 20 to 100 nM; at FGFR1-BCR Ba/F3 cells, more than 300 nM. Moreover, the dissociation constant Kd lay within 1 to 20 nM at FGFR3; 1 to 20 nM at FGFR3 (V555M); 1 to 20 nM at FGFR4; 1 to 20 nM at FGFR1; 20 to 100 nM on FGFR2.
For the compound `C[C@@H](Oc1ccc2[nH]nc(-c3cnc(N4CCC5(CC4)CCS(=O)(=O)C5)nc3)c2c1)c1c(Cl)cncc1Cl` [Example 57, 8-[5-[5-[(1R)-1-(3,5-dichloro-4-pyridyl)ethoxy]-1H-indazol-3-yl]pyrimidin-2-yl]-2λ^6-thia-8-azaspiro[4.5]decane 2,2-dioxide], the “Ba/F3 FGFR1/FGFR3 Selectivity” value in test [1] is 15. Besides, the results for the IC50 (in test [1]; at FGFR1-BCR Ba/F3 cells) were 1 to 20 nM and 100 to 300 nM, respectively. Moreover, the Kd on FGFR3 lay within 1 to 20 nM; on FGFR3 (V555M), 1 to 20 nM; on FGFR4, 1 to 20 nM; at FGFR1, 20 to 100 nM; at FGFR2, 20 to 100 nM.
Consider `C[C@@H](Oc1ccc2[nH]nc(-c3cnc(N4CCC5(CC4)C(=O)NCCN5C)nc3)c2c1)c1c(Cl)cncc1Cl` [Example 58, 9-[5-[5-[(1R)-1-(3,5-dichloro-4-pyridyl)ethoxy]-1H-indazol-3-yl]pyrimidin-2-yl]-1-methyl-1,4,9-triazaspiro[5.5]undecan-5-one], for which the “Ba/F3 FGFR1/FGFR3 Selectivity” value in test [1] was found to be 11. Besides, the values for the IC50 (in test [1]; at FGFR1-BCR Ba/F3 cells) were 20 to 100 nM and 100 to 300 nM, respectively. The dissociation constant (Kd) at FGFR3 was 1 to 20 nM; on FGFR3 (V555M), 1 to 20 nM; on FGFR4, 1 to 20 nM; on FGFR1 it was 20 to 100 nM; at FGFR2, 20 to 100 nM.
Turning to `C[C@@H](Oc1ccc2[nH]nc(-c3cnc(N4CCCN(C(N)=O)CC4)nc3)c2c1)c1c(Cl)cncc1Cl` [Example 62, 4-[5-[5-[(1R)-1-(3,5-Dichloro-4-pyridyl)ethoxy]-1H-indazol-3-yl]pyrimidin-2-yl]-1,4-diazepane-1-carboxamide], the “Ba/F3 FGFR1/FGFR3 Selectivity” value in test [1] was 8. The IC50 in test [1] was 20 to 100 nM; on FGFR1-BCR Ba/F3 cells, more than 300 nM. Also, the Kd lay in the range of 1 to 20 nM at FGFR3; 1 to 20 nM at FGFR3 (V555M); 1 to 20 nM at FGFR4; 20 to 100 nM on FGFR1; 20 to 100 nM on FGFR2.
For the compound `C[C@@H](Oc1ccc2[nH]nc(-c3cnc(N4CCCN(S(C)(=O)=O)CC4)nc3)c2c1)c1c(Cl)cncc1Cl` [Example 63, 5-[(1R)-1-(3,5-Dichloro-4-pyridyl)ethoxy]-3-[2-(4-methylsulfonyl-1,4-diazepan-1-yl)pyrimidin-5-yl]-1H-indazole], in test [1], the “Ba/F3 FGFR1/FGFR3 Selectivity” value turned out to be 16. Further, the IC50 was 20 to 100 nM in test [1] and more than 300 nM at FGFR1-BCR Ba/F3 cells. Further, the dissociation constant Kd on FGFR3 fell in the range of 1 to 20 nM; on FGFR3 (V555M) it was 1 to 20 nM; at FGFR4 it was 1 to 20 nM; on FGFR1, 20 to 100 nM; on FGFR2, 20 to 100 nM.
For the compound `C[C@@H](Oc1ccc2[nH]nc(-c3cnn(C4CCNCC4)c3)c2c1)c1c(Cl)cncc1Cl` [Example 64, 5-[(1R)-1-(3,5-dichloro-4-pyridyl)ethoxy]-3-[1-(4-piperidyl)pyrazol-4-yl]-1H-indazole], in test [1], the “Ba/F3 FGFR1/FGFR3 Selectivity” value is on record as 16. The figures for the IC50 (in test [1]; at FGFR1-BCR Ba/F3 cells) were 1 to 20 nM and 100 to 300 nM, respectively. Besides, the dissociation constant Kd at FGFR3, at FGFR3 (V555M), on FGFR4, on FGFR1 and on FGFR2 was 1 to 20 nM each time.
